The values below come from US20230011869A1 (Hoffmann-La Roche Inc., priority 2018, published 2023).

Where a name gives a salt, the structure may show the parent alone. Read-outs that look alike come from different tables or passages of the source.

The experiment deals with Acinetobacter baumannii ATCC17978. In words: Antimicrobial susceptibility testing: 90% growth inhibitory concentration (IC90) determination, Iso-Sensitest broth. In kind it is cell-based. The method in brief: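 A. baumannii ATCC17978 grown in Iso-Sensitest broth across 10 compound concentrations at 35±2 °C.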
The mark [1] stands for this setting: 90% growth inhibitory concentration, Acinetobacter baumannii ATCC17978, Iso-Sensitest broth, OD 600 nm over 16 h, read-out: ATCC17978 IC90.
Where [2] appears, read: Acinetobacter baumannii, ATCC17978, 16 h, read-out: ATCC17978 IC90, 90% growth inhibitory concentration, Acinetobacter baumannii ATCC17978, Iso-Sensitest broth, OD 600 nm over 16 h.

As to `Cc1cc(Nc2nccn3c(-c4ccc(OC(F)F)cc4)cnc23)ccc1C(=O)N1CCN(C(=O)Nc2ccncc2)CC1` [Example 245, 4-[4-[[3-[4-(difluoromethoxy)phenyl]imidazo[1,2-a]pyrazin-8-yl]amino]-2-methyl-benzoyl]-N-(4-pyridyl)piperazine-1-carboxamide], the IC90 under setting [1] came out at 120 nM.

Turning to `Cc1cc(Nc2nccn3c(-c4ccc(OCC#CCO)c(F)c4)cnc23)ccc1C(=O)N1CCC(CCN)CC1` [Example 246, [4-(2-aminoethyl)-1-piperidyl]-[4-[[3-[3-fluoro-4-(4-hydroxybut-2-ynoxy)phenyl]imidazo[1,2-a]pyrazin-8-yl]amino]-2-methyl-phenyl]methanone], the IC90 under setting [1] came out at 92 nM.

For the compound `Cc1cc(Nc2nccn3c(-c4ccc(OCC#CCN)c(F)c4)cnc23)ccc1C(=O)N1CCC(CN)CC1` [Example 247, [4-[[3-[4-(4-aminobut-2-ynoxy)-3-fluoro-phenyl]imidazo[1,2-a]pyrazin-8-yl]amino]-2-methyl-phenyl]-[4-(aminomethyl)-1-piperidyl]methanone; formic acid], the IC90 under setting [2] was determined as 870 nM.

For the compound `Cc1cc(Nc2nccn3c(-c4ccc(OC(F)F)cc4)cnc23)ccc1C(=O)N1CCN(C(=O)[C@H]2C[C@@H](N)C2)CC1` [Example 249, [4-(3-aminocyclobutanecarbonyl)piperazin-1-yl]-[4-[[3-[4-(difluoromethoxy)phenyl]imidazo[1,2-a]pyrazin-8-yl]amino]-2-methyl-phenyl]methanone hydrochloride], the IC90 under setting [2] was 180 nM.

As to `Cc1cc(Nc2nccn3c(-c4ccc(OC(F)F)cc4)cnc23)ccc1C(=O)N1CCN(C(=O)[C@H]2C[C@H](N)C2)CC1` [Example 250, [4-(3-aminocyclobutanecarbonyl)piperazin-1-yl]-[4-[[3-[4-(difluoromethoxy)phenyl]imidazo[1,2-a]pyrazin-8-yl]amino]-2-methyl-phenyl]methanone hydrochloride], under setting [2], the IC90 worked out at 160 nM.

As for `COc1ccc(-c2cnc3c(Nc4ccc(C(=O)N5CCCC(CN(C)C)C5)c(C)c4)nccn23)cc1F` (stereo not shown) [Example 252, [3-[(dimethylamino)methyl]pi-peridin-1-yl]-[4-[[3-(3-fluoro-4-methoxyphenyl)imidazo[1,2-a]pyrazin-8-yl]amino]-2-methylphenyl]methanone], the IC90 under setting [1] was 2000 nM.

As to `COc1ccc(-c2cnc3c(Nc4ccc(C(=O)N5CCCCC5CN(C)C)c(C)c4)nccn23)cc1F` (stereo not shown) [Example 253, [2-[(dimethylamino)methyl]pi-peridin-1-yl]-[4-[[3-(3-fluoro-4-methoxyphenyl)imidazo[1,2-a]pyrazin-8-yl]amino]-2-methylphenyl]methanone; for-mic acid], under setting [1], the IC90 was determined as 6700 nM.

In the case of `COc1ccc(-c2cnc3c(Nc4ccc(C(=O)N5CCNC(CN(C)C)C5)c(C)c4)nccn23)cc1F` (stereo not shown) [Example 254, [3-[(dimethylamino)methyl]pi-perazin-1-yl]-[4-[[3-(3-fluoro-4-methoxyphenyl)imidazo[1,2-a]pyrazin-8-yl]amino]-2-methylphenyl]methanone; hy-drochloride], under setting [1], the IC90 is 2100 nM.

For `Cc1cc(Nc2nccn3c(-c4ccc(OC(F)F)cc4)cnc23)ccc1C(=O)N1CCN(C(=O)C(O)CN)CC1` (stereo not shown) [Example 255, 3-amino-1-[4-[4-[[3-[4-(difluoromethoxy)phenyl]imi-dazo[1,2-a]pyrazin-8-yl]amino]-2-methylbenzoyl]piperazin-1-yl]-2-hydroxypropan-2-one; 2,2,2-trifluoroacetc acid], the IC90 under setting [1] was found to be 730 nM.

In the case of `COc1ccc(-c2cnc3c(Nc4ccc(C(=O)N5CCN(Cc6cnc[nH]6)CC5)c(C)c4)nccn23)cc1F` [Example 256, [4-[[3-(3-fluoro-4-methoxyphenyl)imidazo[1,2-a]pyrazin-8-yl]amino]-2-methylphenyl]-[4-(1H-imidazol-5-ylmethyl)piperazin-1-yl]methanone], the IC90 under setting [1] is 760 nM.

As to `COc1ccc(-c2cnc3c(Nc4ccc(C(=O)N5CCC(C(=O)NCC(O)C(O)CO)CC5)c(C)c4)nccn23)cc1F` (stereo not shown) [Example 257, 1-[4-[[3-(3-fluoro-4-methoxyphenyl)imidazo[1,2-a]pyrazin-8-yl]amino]-2-methylbenzoyl]-N-(2,3,4-trihydroxybutyl)piperidine-4-carboxamide], under setting [1], the IC90 was found to be 850 nM.

In the case of `Cc1cc(Nc2nccn3c(-c4ccc(OC(F)F)cc4)cnc23)ccc1C(=O)N1CCN(C(=O)[C@H](N)C(C)C)CC1` [Example 258, hydrochloride], under setting [2], the IC90 stood at 890 nM.

Consider `Cc1cc(Nc2nccn3c(-c4ccc(OC(F)F)cc4)cnc23)ccc1C(=O)N1CCN(C(=O)CN)CC1` [Example 259, 2-amino-1-[4-[4-[[3-[4-(difluoromethoxy)phenyl]imi-dazo[1,2-a]pryazin-8-yl]amino]-2-methylbenzoyl]piperazin-1-yl]ethanone; formic acid], for which the IC90 (read-out: ATCC17978 IC90, 90% growth inhibitory concentration, Acinetobacter baumannii ATCC17978, Iso-Sensitest broth, OD 600 nm over 16 h) turned out to be 890 nM.

As for `Cc1cc(Nc2nccn3c(-c4ccc(OC(F)F)cc4)cnc23)ccc1C(=O)N1CCN(C(=O)[C@H](N)C2CC2)CC1` [Example 260, (2R)-2-amino-2-cyclopropyl-1-[4-[4-[[3-[4-(difluoromethoxy)phenyl]imi-dazo[1,2-a]pyrazin-8-yl]amino]-2-methylbenzoyl]piperazin-1-yl]ethanone; hydrochloride], under setting [2], the IC90 is 1000 nM.

Regarding `CC[C@@H](N)C(=O)N1CCN(C(=O)c2ccc(Nc3nccn4c(-c5ccc(OC(F)F)cc5)cnc34)cc2C)CC1` [Example 261, (2R)-2-amino-1-[4-[4-[[3-[4-(difluoromethoxy)phenyl]imi-dazo[1,2-a]pyrazin-8-yl]amino]-2-methylbenzoyl]piperazin-1-yl]butan-1-one; hydrochloride], the IC90 under setting [2] amounted to 1000 nM.

For the compound `Cc1cc(Nc2nccn3c(-c4ccc(OC(F)F)cc4)cnc23)ccc1C(=O)N1CCN(C(=O)[C@@H](N)CCCNC(N)=O)CC1` [Example 262, [(4S)-4-amino-5-[4-[4-[[3-[4-(difluoromethoxy)phenyl]imi-dazo[1,2-a]pyrazin-8-yl]amino]-2-methylbenzoyl]piperazin-1-yl]-5-oxopentyl]urea], the IC90 under setting [2] was 1000 nM.

With `Cc1cc(Nc2nccn3c(-c4ccc(OC(F)F)cc4)cnc23)ccc1C(=O)N1CCC(C(=O)N[C@@H]2CCNC2)CC1` [Example 263, 1-[4-[[3-[4-(difluoromethoxy)phenyl]imi-dazo[1,2-a]pyrazin-8-yl]amino]-2-methylbenzoyl]-N-[(3R)-pyrrolidin-3-yl]piperidine-4-carboxamide; hydrochloride], the IC90 under setting [2] is 1100 nM.

Consider `COc1ccc(-c2cnc3c(Nc4ccc(C(=O)N5CCC(C(=O)N6CCNC(C(=O)O)C6)CC5)c(C)c4)nccn23)cc1F` (stereo not shown) [Example 264, 4-[1-[4-[[3-(3-fluoro-4-methoxyphenyl)imidazo[1,2-a]pyrazin-8-yl]amino]-2-methylbenzoyl]piperidine-4-carbonyl]piperazine-2-carboxylic acid; formic acid], for which the IC90 under setting [2] came to 1100 nM.

For `Cc1cc(Nc2nccn3c(-c4ccc(OC(F)F)cc4)cnc23)ccc1C(=O)N1CCN(C(=O)[C@H]2CC[C@H](C(=O)O)CC2)CC1` [Example 265, 4-[4-[4-[[3-[4-(difluoromethoxy)phenyl]imi-dazo[1,2-a]pyrazin-8-yl]amino]-2-methylbenzoyl]piperazine-1-carbonyl]cyclohexane-1-carboxylic acid], the IC90 under setting [2] stood at 1100 nM.

`COc1ccc(-c2cnc3c(Nc4ccc(C(=O)N5CCC(C(=O)N6CCNC(C(=O)O)C6)CC5)c(C)c4)nccn23)c(F)c1F` (stereo not shown) [Example 266, 4-[1-[4-[[3-(2,3-difluoro-4-methoxyphenyl)imidazo[1,2-a]pyrazin-8-yl]amino]-2-methylbenzoyl]piperidine-4-carbonyl]piperazine-2-carboxylic acid]: the IC90 under setting [1] came out at 1100 nM.

In the case of `Cc1cc(Nc2nccn3c(-c4ccc(OC(F)F)cc4)cnc23)ccc1C(=O)N1CCN(C(=O)C2(C)CNC2)CC1` [Example 267, [4-[[3-[4-(difluoromethoxy)phenyl]imi-dazo[1,2-a]pyrazin-8-yl]amino]-2-methylphenyl]-[4-(3-methylazetidine-3-carbonyl)piperazin-1-yl]methanone], the IC90 under setting [2] was 1300 nM.

For `Cc1cc(Nc2nccn3c(-c4ccc(OC(F)F)cc4)cnc23)ccc1C(=O)N1CCC(C(=O)N(C)C[C@H](O)[C@@H](O)[C@@H](O)[C@H](O)CO)CC1` [Example 268, 1-[4-[[3-[4-(difluoromethoxy)phenyl]imi-dazo[1,2-a]pyrazin-8-yl]amino]-2-methylbenzoyl]-N-methyl-N-[(2S,3R,4S,5R)-2,3,4,5,6-pentahydroxyhexyl]piperidine-4-carboxamide], under setting [2], the IC90 came to 1500 nM.

Consider `Cc1cc(Nc2nccn3c(-c4ccc(OC(F)F)cc4)cnc23)ccc1C(=O)N1CCN(C(=O)c2cc(C(=O)O)ncn2)CC1` [Example 269, 6-[4-[4-[[3-[4-(difluoromethoxy)phenyl]imi-dazo[1,2-a]pyrazin-8-yl]amino]-2-methylbenzoyl]piperazine-1-carbonyl]pyrimidine-4-carboxylic acid], for which the IC90 under setting [2] is 2000 nM.

Regarding `Cc1cc(Nc2nccn3c(-c4ccc(OC(F)F)cc4)cnc23)ccc1C(=O)N1CCC(C(=O)N2C[C@H](O)[C@@H](O)[C@@H](O)[C@H]2CO)CC1` [Example 270, [4-[[3-[4-(difluoromethoxy)phenyl]imi-dazo[1,2-a]pyrazin-8-yl]amino]-2-methylphenyl]-[4-[(2R,3S,4R,5S)-3,4,5-trihydroxy-2-(hydroxymethyl)piperidine-1-carbonyl]piperidin-1-yl]methanone], the IC90 under setting [2] is 2000 nM.

Consider `Cc1cc(Nc2nccn3c(-c4ccc(OC(F)F)cc4)cnc23)ccc1C(=O)N1CCN(C(=O)CC[C@@H](N)C(=O)O)CC1` [Example 271, (2R)-2-amino-5-[4-[4-[[3-[4-(difluoromethoxy)phenyl]imi-dazo[1,2-a]pyrazin-8-yl]amino]-2-methylbenzoyl]piperazin-1-yl]-5-oxopentanoic acid; formic acid], for which the IC90 under setting [1] came out at 2100 nM.
